What all share (assay type): functional
Assay [1] relates to Mus musculus. The assay can be described thus: Immunosuppressive activity in anti-CD3-stimulated mouse assessed as reduction in IL-2 level in whole blood at 50 mg/kg, po measured after 1 hr by flow cytometry analysis. Details: scale not given: the % may be the effect or the level left.
Assay [2] relates to Mus musculus. The assay can be described thus: Immunosuppressive activity in anti-CD3-stimulated mouse assessed as reduction in IL-2 level in whole blood at 50 mg/kg, po measured after 4 hrs by flow cytometry analysis. Details: scale not given: the % may be the effect or the level left. (In general: In flow cytometry, cells or beads pass a laser one at a time.)
For assay [3], the system named is Mus musculus. The assay can be described thus: Immunosuppressive activity in anti-CD3-stimulated mouse assessed as reduction in IL-2 level in whole blood at 50 mg/kg, po measured after 8 hr by flow cytometry analysis. Details: scale not given: the % may be the effect or the level left.
For assay [4], the system named is Mus musculus. The experiment in a line: Immunosuppressive activity in BALB/c mouse allografted with C57 mouse cardiac tissue assessed as suppression of graft rejection by measuring graft median survival time at 4 mg/kg, IM.
In assay [5] the test system is Mus musculus. The experiment in a line: Immunosuppressive activity in anti-CD3-stimulated mouse assessed as reduction in IL-2 level in whole blood at 25 mg/kg, po measured after 1 hr by flow cytometry analysis. Details: scale not given: the % may be the effect or the level left.
Assay [6] relates to Mus musculus. The assay can be described thus: Immunosuppressive activity in anti-CD3-stimulated mouse assessed as reduction in IL-2 level in whole blood at 25 mg/kg, po measured after 4 hr by flow cytometry analysis. The arrangement: scale not given: the % may be the effect or the level left.
Assay [7] has as its system Mus musculus. The experiment in a line: Immunosuppressive activity in anti-CD3-stimulated mouse assessed as reduction in IL-2 level in whole blood at 25 mg/kg, po measured after 8 hr by flow cytometry analysis. Details: scale not given: the % may be the effect or the level left.
For assay [8], the system named is Mus musculus. The assay can be described thus: Immunosuppressive activity in anti-CD3-stimulated mouse assessed as reduction in IL-2 level in whole blood at 40 mg/kg, po measured after 8 hrs by flow cytometry analysis. Details: scale not given: the % may be the effect or the level left.
Assay [9] relates to Mus musculus. The experiment in a line: Immunosuppressive activity in anti-CD3-stimulated mouse assessed as reduction in IL-2 level in whole blood at 40 mg/kg, po measured after 4 hrs by flow cytometry analysis. Details: scale not given: the % may be the effect or the level left.
In assay [10] the test system is Mus musculus. The assay can be described thus: Immunosuppressive activity in anti-CD3-stimulated mouse assessed as reduction in IL-2 level in whole blood at 40 mg/kg, po measured after 1 hr by flow cytometry analysis. The arrangement: scale not given: the % may be the effect or the level left.
The subject of assay [11] is Mus musculus. The assay can be described thus: Immunosuppressive activity in BALB/c mouse allografted with C57 mouse cardiac tissue assessed as suppression of graft rejection by measuring graft median survival time at 83 mg/kg, po.
In assay [12] the test system is Mus musculus. The experiment in a line: Immunosuppressive activity in BALB/c mouse allografted with C57 mouse cardiac tissue assessed as suppression of graft rejection by measuring graft median survival time at 83 mg/kg, po in presence of tacrolimus.
Assay [13] has as its system Mus musculus. The assay can be described thus: Immunosuppressive activity in anti-CD3-stimulated mouse assessed as reduction in IL-2 level in whole blood at 65 mg/kg, po measured after 8 hrs by flow cytometry analysis. Details: scale not given: the % may be the effect or the level left.
Assay [14] concerns Mus musculus. The assay can be described thus: Immunosuppressive activity in anti-CD3-stimulated mouse assessed as reduction in IL-2 level in whole blood at 65 mg/kg, po measured after 1 hr by flow cytometry analysis. Details: scale not given: the % may be the effect or the level left.
The test system of assay [15] is Mus musculus. The assay can be described thus: Immunosuppressive activity in anti-CD3-stimulated mouse assessed as reduction in IL-2 level in whole blood at 65 mg/kg, po measured after 4 hrs by flow cytometry analysis. Details: scale not given: the % may be the effect or the level left.
For assay [16], the system named is Mus musculus. The experiment in a line: Immunosuppressive activity in BALB/c mouse allografted with C57 mouse cardiac tissue assessed as suppression of graft rejection by measuring graft median survival time at 112 mg/kg, po in presence of tacrolimus.
Assay [17] relates to Mus musculus. The experiment in a line: Immunosuppressive activity in anti-CD3-stimulated mouse assessed as reduction in IL-2 level in whole blood at 55 mg/kg, po measured after 8 hrs by flow cytometry analysis. Details: scale not given: the % may be the effect or the level left.
The test system of assay [18] is Mus musculus. The assay can be described thus: Immunosuppressive activity in BALB/c mouse allografted with C57 mouse cardiac tissue assessed as suppression of graft rejection by measuring graft median survival time at 112 mg/kg, po.
Assay [19] relates to Mus musculus. The experiment in a line: Immunosuppressive activity in anti-CD3-stimulated mouse assessed as reduction in IL-2 level in whole blood at 55 mg/kg, po measured after 1 hr by flow cytometry analysis. The arrangement: scale not given: the % may be the effect or the level left.
The test system of assay [20] is Mus musculus. The assay can be described thus: Immunosuppressive activity in anti-CD3-stimulated mouse assessed as reduction in IL-2 level in whole blood at 55 mg/kg, po measured after 4 hrs by flow cytometry analysis. Details: scale not given: the % may be the effect or the level left.

In the case of `COc1c(C)c2c(c(O)c1C/C=C(\C)CCC(=O)OCCN1CCOCC1)C(=O)OC2` [MYCOPHENOLATE MOFETIL], the figures for the Activity in the assay on Mus musculus [1], in the assay on Mus musculus [2] and with Mus musculus [3] were 3.4%, 52.3% and 81.7%, respectively.

Consider `C=CC[C@@H]1/C=C(\C)C[C@H](C)C[C@H](OC)[C@H]2O[C@@](O)(C(=O)C(=O)N3CCCC[C@H]3C(=O)O[C@H](/C(C)=C/[C@@H]3CC[C@@H](O)[C@H](OC)C3)[C@H](C)[C@@H](O)CC1=O)[C@H](C)C[C@@H]2OC` [TACROLIMUS ANHYDROUS], for which the MST in the assay with Mus musculus [4] turned out to be 8 days.

As to `NC(=O)c1ncn([C@@H]2O[C@H](CO)[C@@H](O)[C@H]2O)c1O` [MIZORIBINE], the Activity turned out to be 55.6% in the assay with Mus musculus [5], 8.6% in the assay with Mus musculus [6] and 7.3% in the assay on Mus musculus [7].

`CC(C)(C)C(=O)NC(=O)c1ncn([C@@H]2O[C@H](COC(=O)C(C)(C)C)[C@@H](O)[C@H]2O)c1O`: the Activity turned out to be 61.3% in the assay on Mus musculus [8], 64.4% in the assay with Mus musculus [9] and 19.4% in the assay with Mus musculus [10]. Besides, the figures for the MST in the assay on Mus musculus [11] and with Mus musculus [12] were 11 days and 55 days, respectively.

Turning to `CC(C)CCOC(=O)C[C@H](NP(=O)(OC[C@H]1O[C@@H](n2cnc(C(N)=O)c2O)[C@H](O)[C@@H]1O)Oc1ccccc1)C(=O)OCCC(C)C` (stereo not given in full), the Activity in the assay on Mus musculus [13] stood at 17.5%; with Mus musculus [14] it was 14.7%; in the assay with Mus musculus [15] it was 18.3%.

Consider `NC(=O)c1ncn([C@@H]2O[C@H](COC(=O)[C@@H](N)CC(=O)OCc3ccccc3)[C@@H](O)[C@H]2O)c1O.O=C(O)C(F)(F)F`, for which the results for the MST with Mus musculus [16] and in the assay on Mus musculus [18] were 15.5 days and 11 days, respectively. Further, the Activity in the assay on Mus musculus [17] was determined as 27.7%; with Mus musculus [19] it was 77%; in the assay on Mus musculus [20] it was 32.7%.

Source of the values: ChEMBL document CHEMBL5365536, “Synthesis of mizoribine prodrugs and their in vivo evaluation as immunosuppressive agents” (2023).
